This assay concerns the target T1, G1 APOL1 (Homo sapiens, UniProt O14791, I384M/S342G).
T1 construct: expressed in transfected cells
T1 sequence (O14791 28-398 S342G/I384M): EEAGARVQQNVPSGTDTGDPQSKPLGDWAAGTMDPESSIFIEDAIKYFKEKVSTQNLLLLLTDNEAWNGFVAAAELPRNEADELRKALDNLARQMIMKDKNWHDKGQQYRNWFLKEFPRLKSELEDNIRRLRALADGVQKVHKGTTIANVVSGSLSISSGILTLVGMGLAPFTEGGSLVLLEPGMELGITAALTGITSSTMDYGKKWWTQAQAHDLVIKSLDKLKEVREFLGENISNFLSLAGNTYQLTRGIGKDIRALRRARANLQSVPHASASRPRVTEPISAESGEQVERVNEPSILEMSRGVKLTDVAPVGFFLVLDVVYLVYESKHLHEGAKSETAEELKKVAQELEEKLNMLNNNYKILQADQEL
As to the kind of experiment: Acute APOL1 Thallium Assay with Inducible Stable Clones of HEK 293 Cells. It counts as cell-based. The settings on record: HEK 293 inducible stable clones, G1 APOL1; read-out: Thallium Assay (IC50). An excerpt:
Acute APOL1 Thallium Assay with Inducible Stable Clones of HEK 293 Cells
Apolipoprotein L1 (APOL1) proteins form potassium-permeable cation pores in the plasma membrane. APOL1 risk variants (G1 and G2) induce greater potassium flux than G0 in HEK293 cells. This assay exploits the permeability of thallium (Tl+) through ligand-gated potassium channels. The dye produces a bright fluorescent signal upon binding to Tl+ conducted through potassium channels. The intensity of the Tl+ signal is proportional to the number of potassium channels in the open state. Therefore, it provides a functional indication of the potassium channel activities. During the initial dye-loading step, the Tl+ indicator dye as an acetoxymethyl (AM) ester enters the cells through passive diffusion. Cytoplasm esterases cleave the AM ester and relieve its active thallium-sensitive form. The cells are then stimulated with Tl+. The increase of fluorescence in the assay represents the influx of Tl+ into the cell specifically through the potassium channel (i.e. through APOL1 pores), providing a functional measurement of potassium channel/pore activity. The Thallium assay is conducted with cells expressing G1 APOL1.
APOL1 Cell Line (HEK T-Rex Stable Inducible Cell Line) • HEK T-Rex System • Tetracycline (Tet) inducible mammalian expression system. • Stably express the Tet repressor to regulate transcription. • Expression under the full-length CMV promoter. • APOL1 stable inducible cell line Clone used: G1 DC3.25
Tissue Culture Media • Cell Culture Medium • DMEM+10% FBS+P/S+5 μg/mL blasticidin+1 μg/mL puromycin. • 500 mL DMEM+55 mL FBS+5 mL P/S+280 μL blasticidin S HCl (10 mg/mL)+56 μL puromycin (10 mg/mL). • Cell Assay Medium • DMEM with 2% FBS+penicillin/streptomycin.
Instruments and Equipment • Nuaire cell culture hood, Cat. No. 540-600 • 37° C./5% CO2 incubator link to robotic arm, Liconic: STX110 • Molecular Devices FLIPR^Tetra High throughput cellular screening system, Cat. No. FT0324, Molecular Devices • ThermoFisher MultiDrop 384, Cat. No. 5840300 • Biotek Microfill, Cat. No. ASF1000A-4145 • BioRad TC10 cell counter, Cat. No. 145-0010
Cells Scaled Up from Frozen Vials • APOL1 G1 3.25 (HEK293 T-Rex) frozen vials: 5 million cells per vial • Step 1, Day 1: Defrost frozen vial into T-225. • Step 2, Day 5: (when 85% confluent): Split one T-225 at 3×10^6 cells per flask. • Step 3, Day 8: Splits cells to set up for the assay plates as described below.
T-Rex APOL1 HEK cells are split twice per week to keep the confluence state below 85% of the culture flask surface area. Cells can be kept until passage 25. • Cell Culture Medium • DMEM high glucose+10% FBS, +P/S, +5 μg/mL blasticidin, +1 μg/mL puromycin. • 500 mL DMEM, +55 mL FBS, +5 mL P/S, +280 μL blasticidin 10 mg/mL, +56 μL Puromycin 10 mg/mL. • Assay Media • Opti-MEM reduced serum medium from Invitrogen.
Preparation of Cell Assay Plates • Culture medium is removed from the x cm^2 T-flask by aspiration. • The cell monolayer is rinsed with PBS 1× at room temperature. PBS is removed by aspiration. • Cells are trypsinized using Trypsin. • The flasks are incubated at room temperature for 2-3 minutes. • Complete DMEM medium is then added. Cell suspension is then transferred to a 50 mL Falcon polypropylene tube. • Cells are then counted using a BioRad TC10 cell counter and the required amount of cells are centrifuged at 1200 RPM for 5 minutes. Required amount is 1.3×10^6 cells/mL APOL1 T-Rex HEK cells. • The pellet is suspended in the assay medium. • Using the MultiDrop, add 20 μL to each well (corresponds to 26000 cells total per well) of a 384-well black, transparent, flat bottom Poly-D coated plate. • Tetracycline as prepared in the following section is added to the cells before plating to induce APOL1 expression. • Plates are left at room temperature for 20 to 30 minutes before incubation at 37° C. and 5% CO2. […]
On to `Cc1cc(F)c2[nH]c(-c3ccc(F)cc3)c(CCC(=O)N[C@@H](CO)C(F)(F)F)c2c1` [Compound 214], for which the IC50 (as a rule, the concentration that inhibits the measured activity by half) was < 250 nM.

Turning to `Cc1cc(F)c2[nH]c(-c3ccc(F)cc3)c(CCC(=O)NC(C#N)CO)c2c1` (centres unmarked) [Compound 215], the IC50 lay in the range of 250 to 1000 nM.

For `Cc1cc(F)c2[nH]c(-c3ccc(F)cc3)c(CCC(=O)NC3(CO)CCC3)c2c1` [Compound 216], the concentration for half-maximal inhibition (IC50) is 250 to 1000 nM.

`Cc1cc(F)c2[nH]c(-c3ccc(F)cc3)c(CCC(=O)NC(CO)(CO)CO)c2c1` [Compound 217]: the IC50 was > 1000 nM.

Take `Cc1cc(F)c2[nH]c(-c3ccc(F)cc3)c(CCC(=O)NCCO)c2c1` [Compound 218]: the IC50 is > 1000 nM.

Regarding `Cc1cc(F)c2[nH]c(-c3ccc(F)cc3)c(CCC(=O)NC(CO)CO)c2c1` [Compound 219], the IC50 was > 1000 nM.

Regarding `Cc1cc(F)c2[nH]c(-c3ccc(F)cc3)c(CCC(=O)N[C@H](CO)C(N)=O)c2c1` [Compound 220], the IC50 was > 1000 nM.

On to `Cc1cc(F)c2[nH]c(-c3ccc(F)cc3)c(CCC(=O)NC(CO)CF)c2c1` (centres unmarked) [Compound 221], for which the IC50 is > 1000 nM.

In the case of `Cc1cc(F)c2[nH]c(-c3ccc(F)cc3)c(CCC(=O)N[C@@H](C)CO)c2c1` [Compound 222], the IC50 was > 1000 nM.

In the case of `Cc1cc(F)c2[nH]c(-c3ccc(F)cc3)c(CCC(=O)NCC(N)=O)c2c1` [Compound 223], the IC50 was > 1000 nM.

As for `Cc1cc(F)c2[nH]c(-c3ccc(F)cc3)c(CCC(=O)N[C@H](CO)C(F)(F)F)c2c1` [Compound 224], the 50% inhibitory concentration (IC50) was > 1000 nM.

For the molecule `Cc1cc(F)c2[nH]c(-c3ccc(F)cc3)c(CCC(=O)NC(C)(CO)CO)c2c1` [Compound 225], the IC50 is > 1000 nM.

On to `Cc1cc(F)c2[nH]c(-c3ccc(F)cc3)c(CCC(=O)NC[C@H](O)CO)c2c1` [Compound 226], for which the IC50 is > 1000 nM.

As for `O=C(CCc1c(-c2ccc(F)cc2)[nH]c2c(Cl)cccc12)N[C@@H](CO)C(F)F` [Compound 231, 3-[7-chloro-2-(4-fluorophenyl)-1H-indol-3-yl]-N-[(1S)-2,2-difluoro-1-(hydroxymethyl)ethyl]propanamide], the IC50 was < 250 nM.

As to `O=C(CCc1c(-c2ccccc2)[nH]c2ccc(F)cc12)N[C@@H](CO)C(F)F` [Compound 235, N-[(1S)-2,2-difluoro-1-(hydroxymethyl)ethyl]-3-(5-fluoro-2-phenyl-1H-indol-3-yl)propanamide], the IC50 was < 250 nM.

For `CNC(=O)CCCc1c(-c2ccc(F)cc2)[nH]c2c(F)cc(F)cc12` [Compound 239, 4-(5,7-difluoro-2-(4-fluorophenyl)-1H-indol-3-yl)-N-methylbutanamide], the IC50 lay within 250 to 1000 nM.

Consider `C[C@@H](CO)NC(=O)CCCc1c(-c2ccc(F)cc2)[nH]c2c(F)cc(F)cc12` [Compound 240], for which the IC50 is 250 to 1000 nM.

As for `C[C@H](CO)NC(=O)CCCc1c(-c2ccc(F)cc2)[nH]c2c(F)cc(F)cc12` [Compound 241], the IC50 lay in the range of 250 to 1000 nM.

`O=C1C[C@@H](NC(=O)CCCc2c(-c3ccc(F)cc3)[nH]c3c(F)cc(F)cc23)C(=O)N1` [Compound 242]: the IC50 is > 1000 nM.

Consider `NC(=O)CCCc1c(-c2ccc(F)cc2)[nH]c2c(F)cc(F)cc12` [Compound 243], for which the IC50 was > 1000 nM.

On to `Cn1cnc(CNC(=O)CCCc2c(-c3ccc(F)cc3)[nH]c3c(F)cc(F)cc23)c1` [Compound 244], for which the half-maximal inhibitory concentration (IC50) was > 1000 nM.

Turning to `O=C1C[C@H](NC(=O)CCCc2c(-c3ccc(F)cc3)[nH]c3c(F)cc(F)cc23)C(=O)N1` [Compound 245], the IC50 was > 1000 nM.

Turning to `NC(=O)CNC(=O)CCCc1c(-c2ccc(F)cc2)[nH]c2c(F)cc(F)cc12` [Compound 246], the IC50 was > 1000 nM.

As for `O=C(CCCc1c(-c2ccc(F)cc2)[nH]c2c(F)cc(F)cc12)N[C@@H]1CCNC1=O` [Compound 247], the IC50 is > 1000 nM.

With `O=C(CCCc1c(-c2ccc(F)cc2)[nH]c2c(F)cc(F)cc12)N1C[C@@H](O)[C@H](O)C1` [Compound 248], the 50% inhibitory concentration (IC50) was > 1000 nM.

For `O=C(CCCc1c(-c2ccc(F)cc2)[nH]c2c(F)cc(F)cc12)N[C@H]1CCNC1=O` [Compound 249], the IC50 was > 1000 nM.

Regarding `CC(O)(CO)CNC(=O)CCCc1c(-c2ccc(F)cc2)[nH]c2c(F)cc(F)cc12` (centres unmarked) [Compound 250], the IC50 was > 1000 nM.

For `Cn1cc(CNC(=O)CCCc2c(-c3ccc(F)cc3)[nH]c3c(F)cc(F)cc23)nn1` [Compound 251], the IC50 was > 1000 nM.

Regarding `O=C(CCCc1c(-c2ccc(F)cc2)[nH]c2c(F)cc(F)cc12)NCC1CNC(=O)C1` (centres unmarked) [Compound 252], the IC50 was > 1000 nM.

In the case of `O=C1CC(NC(=O)CCCc2c(-c3ccc(F)cc3)[nH]c3c(F)cc(F)cc23)CN1` (centres unmarked) [Compound 253], the IC50 is > 1000 nM.

As for `Cn1cc(CNC(=O)CCCc2c(-c3ccc(F)cc3)[nH]c3c(F)cc(F)cc23)cn1` [Compound 254], the IC50 was > 1000 nM.

Consider `Cn1nccc1CNC(=O)CCCc1c(-c2ccc(F)cc2)[nH]c2c(F)cc(F)cc12` [Compound 255], for which the IC50 is > 1000 nM.

On to `O=C(CCCc1c(-c2ccc(F)cc2)[nH]c2c(F)cc(F)cc12)N[C@H]1C[C@@H](CO)NC1=O` [Compound 256], for which the IC50 was > 1000 nM.

Take `C[C@@H]1NC(=O)N(CCc2c(-c3ccc(F)cc3)[nH]c3c(F)cc(F)cc23)C1=O` [Compound 257, (5S)-3-[2-[5,7-difluoro-2-(4-fluorophenyl)-1H-indol-3-yl]ethyl]-5-methyl-imidazolidine-2,4-dione]: the IC50 was > 1000 nM.

`O=C1CNC(=O)N1CCc1c(-c2ccc(F)cc2)[nH]c2c(F)cc(F)cc12` [Compound 258, 3-[2-[5,7-difluoro-2-(4-fluorophenyl)-1H-indol-3-yl]ethyl]imidazolidine-2,4-dione]: the IC50 was > 1000 nM.

Consider `O=C(NCCc1c(-c2ccc(F)cc2)[nH]c2c(F)cc(F)cc12)NC(CO)CF` (centres unmarked) [Compound 259, 1-[2-[5,7-difluoro-2-(4-fluorophenyl)-1H-indol-3-yl]ethyl]-3-[1-(fluoromethyl)-2-hydroxy-ethyl]urea], for which the IC50 fell in the range of 250 to 1000 nM.

For the molecule `O=C(CNC(=O)NCCc1c(-c2ccc(F)cc2)[nH]c2c(F)cc(F)cc12)NO` [Compound 260], the 50% inhibitory concentration (IC50) was > 1000 nM.

As for `O=C(NCCc1c(-c2ccc(F)cc2)[nH]c2c(F)cc(F)cc12)N[C@@H](CO)C(F)(F)F` [Compound 261], the IC50 lay in the range of 250 to 1000 nM.

For the molecule `O=C(NCCc1c(-c2ccc(F)cc2)[nH]c2c(F)cc(F)cc12)N[C@H](CO)C(F)(F)F` [Compound 262], the IC50 is < 250 nM.

Take `O=C(NCCc1c(-c2ccc(F)cc2)[nH]c2c(F)cc(F)cc12)NCCS(=O)(=O)O` [Compound 263]: the IC50 is > 1000 nM.

On to `O=C(NCCc1c(-c2ccc(F)cc2)[nH]c2c(F)cc(F)cc12)NCc1cccc(O)c1` [Compound 264], for which the IC50 was > 1000 nM.

Values taken from patent publication US20230014907A1, “INHIBITORS OF APOL1 AND METHODS OF USING SAME” (Vertex Pharmaceuticals Incorporated, priority 2020, published 2023).
